One test has as its system HCT-116. Put plainly: Antiproliferative activity against human HCT116 cells after 72 hrs by Alamar blue assay. It counts as functional. To be noted: HCT-116, 72 h. A general note: Resazurin is reduced to fluorescent resorufin, in cell work by metabolically active cells.
In test [1] the target is Casein kinase II subunit alpha (Homo sapiens) (UniProt P68400). Put plainly: Inhibition of N-terminal 6 X His-tagged recombinant human full length Casein Kinase 2 alpha subunit expressed in Sf21 insect cells using BODIPY-FL-RRRDDDSDDD-CONH2 as substrate preincubated for 20 mins measured after 90 mins by fluorescence-based assay.
Chain of Casein kinase II subunit alpha (Homo sapiens) (P68400 whole entry, looked up): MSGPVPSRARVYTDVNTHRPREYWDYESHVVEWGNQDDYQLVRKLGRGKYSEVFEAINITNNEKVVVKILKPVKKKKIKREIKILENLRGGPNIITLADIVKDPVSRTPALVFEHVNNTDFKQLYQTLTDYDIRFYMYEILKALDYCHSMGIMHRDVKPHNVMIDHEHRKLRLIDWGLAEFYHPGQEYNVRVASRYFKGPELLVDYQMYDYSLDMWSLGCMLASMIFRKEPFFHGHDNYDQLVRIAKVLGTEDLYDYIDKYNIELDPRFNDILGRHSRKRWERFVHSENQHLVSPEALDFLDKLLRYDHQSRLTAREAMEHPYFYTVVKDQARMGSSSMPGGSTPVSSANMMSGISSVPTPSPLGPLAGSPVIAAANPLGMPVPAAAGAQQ

A word on the GI50: it is the concentration giving 50% growth inhibition. Low readings indicate greater sensitivity of the cells, high ones lower sensitivity of the cells. The IC50 is the concentration that gives 50% inhibition. Consider `CC(=O)Nc1cc(Nc2cc(NC3CC3)n3ncc(C#N)c3n2)ccc1N(C)CCN(C)C`, for which the GI50 with HCT-116 was determined as 30 nM. Also, the IC50 in test [1] was below 4000 nM. On to `CC(=O)Nc1cc(Nc2cc(NC3CC3)n3ncc(C#N)c3n2)ccc1N(C)CCN`, for which halving of growth with HCT-116 (GI50) required 9 nM.

The record behind these values is ChEMBL document CHEMBL3102745, “Inhibition of CK2: An Attractive Therapeutic Target for Cancer Treatment” (ACS Med Chem Lett, 2013).
